Source: article PMC5666424, “Marine-Derived 2-Aminoimidazolone Alkaloids. Leucettamine B-Related Polyandrocarpamines Inhibit Mammalian and Protozoan DYRK & CLK Kinases” (Marine Drugs, 2017)

Assays:
Assay in all cases: KinomeScan
Type in all cases: binding
Details in all cases: 1 μM
[1] = biological target: T1, NDR2 (Homo sapiens, UniProt Q9Y2H1)
T1 construct: purchased DiscoverX (KINOMEscan)

[2] = biological target: T2, p38-alpha (Homo sapiens, UniProt Q16539)
T2 construct: purchased DiscoverX (KINOMEscan)

[3] = biological target: T3, NEK3 (Homo sapiens, UniProt P51956)
T3 construct: purchased DiscoverX (KINOMEscan)

[4] = biological target: T4, MLK1 (Homo sapiens, UniProt P80192)
T4 construct: purchased DiscoverX (KINOMEscan)

[5] = biological target: T5, ABL1(Q252H)-phosphorylated (Homo sapiens, UniProt P00519, Q252H)
T5 construct: purchased DiscoverX (KINOMEscan)

[6] = biological target: T6, DCAMKL3 (Homo sapiens, UniProt Q9C098)
T6 construct: purchased DiscoverX (KINOMEscan)

[7] = biological target: T7, FYN (Homo sapiens, UniProt P06241)
T7 construct: purchased DiscoverX (KINOMEscan)

[8] = biological target: T8, MKK7 (Homo sapiens, UniProt O14733)
T8 construct: purchased DiscoverX (KINOMEscan)

[9] = biological target: T9, WEE2 (Homo sapiens, UniProt P0C1S8)
T9 construct: purchased DiscoverX (KINOMEscan)

[10] = biological target: T10, IKK-epsilon (Homo sapiens, UniProt Q14164)
T10 construct: purchased DiscoverX (KINOMEscan)

[11] = biological target: T11, ABL1(E255K)-phosphorylated (Homo sapiens, UniProt P00519, E255K)
T11 construct: purchased DiscoverX (KINOMEscan)

[12] = biological target: T12, ABL1(H396P)-nonphosphorylated (Homo sapiens, UniProt P00519, H396P)
T12 construct: purchased DiscoverX (KINOMEscan)

[13] = biological target: T13, AURKB (Homo sapiens, UniProt Q96GD4)
T13 construct: purchased DiscoverX (KINOMEscan)
T13 sequence (Q96GD4 whole entry): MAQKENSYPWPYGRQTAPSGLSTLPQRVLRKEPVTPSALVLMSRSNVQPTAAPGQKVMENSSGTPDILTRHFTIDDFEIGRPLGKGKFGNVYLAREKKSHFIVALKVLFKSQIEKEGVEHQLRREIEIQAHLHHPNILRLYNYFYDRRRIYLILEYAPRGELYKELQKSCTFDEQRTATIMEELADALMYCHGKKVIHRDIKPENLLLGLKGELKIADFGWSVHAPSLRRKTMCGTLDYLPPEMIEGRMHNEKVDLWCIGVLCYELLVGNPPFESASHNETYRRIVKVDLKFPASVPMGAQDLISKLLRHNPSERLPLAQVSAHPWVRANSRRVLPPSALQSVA

[14] = biological target: T14, BRSK2 (Homo sapiens, UniProt Q8IWQ3)
T14 construct: purchased DiscoverX (KINOMEscan)
T14 sequence (Q8IWQ3 whole entry): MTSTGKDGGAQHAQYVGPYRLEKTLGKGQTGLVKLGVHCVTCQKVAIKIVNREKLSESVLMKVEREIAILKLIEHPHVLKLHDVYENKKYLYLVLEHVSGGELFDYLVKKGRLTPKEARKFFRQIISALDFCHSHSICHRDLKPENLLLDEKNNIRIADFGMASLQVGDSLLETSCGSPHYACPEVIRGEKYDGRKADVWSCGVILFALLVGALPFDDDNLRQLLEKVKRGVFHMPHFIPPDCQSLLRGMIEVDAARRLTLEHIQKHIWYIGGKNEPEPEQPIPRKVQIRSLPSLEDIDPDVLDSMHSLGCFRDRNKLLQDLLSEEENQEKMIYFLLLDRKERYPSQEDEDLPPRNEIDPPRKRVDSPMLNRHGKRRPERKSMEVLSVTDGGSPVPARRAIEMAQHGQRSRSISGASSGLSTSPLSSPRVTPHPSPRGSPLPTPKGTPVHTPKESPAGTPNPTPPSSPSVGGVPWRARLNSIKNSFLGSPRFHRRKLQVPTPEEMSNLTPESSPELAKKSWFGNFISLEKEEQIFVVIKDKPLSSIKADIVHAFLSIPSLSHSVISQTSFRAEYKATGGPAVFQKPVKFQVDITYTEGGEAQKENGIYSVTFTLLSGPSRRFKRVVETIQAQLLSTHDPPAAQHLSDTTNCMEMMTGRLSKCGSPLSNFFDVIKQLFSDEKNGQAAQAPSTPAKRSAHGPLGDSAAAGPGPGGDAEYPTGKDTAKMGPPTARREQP

[15] = biological target: T15, ACVR2A (Homo sapiens, UniProt P27037)
T15 construct: purchased DiscoverX (KINOMEscan)
T15 sequence (P27037 20-513): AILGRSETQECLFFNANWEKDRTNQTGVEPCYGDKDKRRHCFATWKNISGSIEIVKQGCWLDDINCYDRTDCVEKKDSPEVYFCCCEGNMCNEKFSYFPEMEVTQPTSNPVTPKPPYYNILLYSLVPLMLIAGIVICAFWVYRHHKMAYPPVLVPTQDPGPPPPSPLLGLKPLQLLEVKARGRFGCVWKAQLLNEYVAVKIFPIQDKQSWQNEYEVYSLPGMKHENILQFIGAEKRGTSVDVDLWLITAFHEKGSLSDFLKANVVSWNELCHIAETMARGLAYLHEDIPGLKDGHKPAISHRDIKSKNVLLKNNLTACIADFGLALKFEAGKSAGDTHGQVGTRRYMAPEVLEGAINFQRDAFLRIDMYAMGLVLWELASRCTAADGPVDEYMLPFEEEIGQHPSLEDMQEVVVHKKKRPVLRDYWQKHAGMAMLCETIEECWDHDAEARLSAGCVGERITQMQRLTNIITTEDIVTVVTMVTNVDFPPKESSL

[16] = biological target: T16, CDKL2 (Homo sapiens, UniProt Q92772)
T16 construct: purchased DiscoverX (KINOMEscan)
T16 sequence (Q92772 whole entry): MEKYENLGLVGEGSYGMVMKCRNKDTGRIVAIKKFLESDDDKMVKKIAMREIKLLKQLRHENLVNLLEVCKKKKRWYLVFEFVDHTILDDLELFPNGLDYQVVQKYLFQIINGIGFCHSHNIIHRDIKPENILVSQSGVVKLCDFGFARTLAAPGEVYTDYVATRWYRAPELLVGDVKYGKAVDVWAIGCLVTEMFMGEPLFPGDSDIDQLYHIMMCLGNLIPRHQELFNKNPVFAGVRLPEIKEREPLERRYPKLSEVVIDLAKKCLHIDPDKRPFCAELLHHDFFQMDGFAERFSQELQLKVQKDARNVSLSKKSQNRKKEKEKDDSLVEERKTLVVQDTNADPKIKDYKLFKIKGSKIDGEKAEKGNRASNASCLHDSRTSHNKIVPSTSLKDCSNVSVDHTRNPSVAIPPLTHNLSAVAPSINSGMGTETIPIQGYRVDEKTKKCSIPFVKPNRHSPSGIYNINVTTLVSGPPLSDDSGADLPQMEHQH

[17] = biological target: T17, BMPR2 (Homo sapiens, UniProt Q13873)
T17 construct: purchased DiscoverX (KINOMEscan)
T17 sequence (Q13873 27-1038): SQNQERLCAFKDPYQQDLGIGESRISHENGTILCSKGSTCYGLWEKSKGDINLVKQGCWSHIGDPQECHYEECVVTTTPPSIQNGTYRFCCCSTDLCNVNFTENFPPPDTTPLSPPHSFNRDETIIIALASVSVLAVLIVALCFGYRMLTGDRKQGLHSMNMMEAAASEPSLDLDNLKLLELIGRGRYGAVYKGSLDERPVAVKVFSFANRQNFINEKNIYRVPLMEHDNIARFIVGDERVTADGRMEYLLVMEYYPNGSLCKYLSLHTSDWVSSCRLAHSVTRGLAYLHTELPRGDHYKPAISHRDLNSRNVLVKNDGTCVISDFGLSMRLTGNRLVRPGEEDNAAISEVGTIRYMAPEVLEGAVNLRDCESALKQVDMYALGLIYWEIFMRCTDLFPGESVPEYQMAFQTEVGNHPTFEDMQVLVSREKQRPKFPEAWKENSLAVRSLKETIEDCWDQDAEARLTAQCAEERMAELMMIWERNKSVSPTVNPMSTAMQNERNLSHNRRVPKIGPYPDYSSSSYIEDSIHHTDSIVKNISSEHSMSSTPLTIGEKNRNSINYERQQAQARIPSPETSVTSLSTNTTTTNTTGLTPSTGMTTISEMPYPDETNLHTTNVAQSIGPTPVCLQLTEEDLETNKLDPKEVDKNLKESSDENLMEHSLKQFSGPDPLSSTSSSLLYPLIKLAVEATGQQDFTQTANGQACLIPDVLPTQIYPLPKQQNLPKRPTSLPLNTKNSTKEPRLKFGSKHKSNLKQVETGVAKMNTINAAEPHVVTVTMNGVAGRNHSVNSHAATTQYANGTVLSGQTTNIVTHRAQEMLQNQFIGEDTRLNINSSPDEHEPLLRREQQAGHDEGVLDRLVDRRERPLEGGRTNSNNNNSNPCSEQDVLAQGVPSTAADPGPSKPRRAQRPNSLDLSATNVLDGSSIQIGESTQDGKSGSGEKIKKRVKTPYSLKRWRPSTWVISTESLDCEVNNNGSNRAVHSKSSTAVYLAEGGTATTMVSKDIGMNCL

[18] = biological target: T18, ERN1 (Homo sapiens, UniProt O75460)
T18 construct: purchased DiscoverX (KINOMEscan)

[19] = biological target: T19, ABL1-phosphorylated (Homo sapiens, UniProt P00519)
T19 construct: purchased DiscoverX (KINOMEscan)

[20] = biological target: T20, TNK1 (Homo sapiens, UniProt Q13470)
T20 construct: purchased DiscoverX (KINOMEscan)

[21] = biological target: T21, DAPK1 (Homo sapiens, UniProt P53355)
T21 construct: purchased DiscoverX (KINOMEscan)

[22] = biological target: T22, AURKA (Homo sapiens, UniProt O14965)
T22 construct: purchased DiscoverX (KINOMEscan)

[23] = biological target: T23, JNK2 (Homo sapiens, UniProt P45984)
T23 construct: purchased DiscoverX (KINOMEscan)

[24] = biological target: T24, EPHA5 (Homo sapiens, UniProt P54756)
T24 construct: purchased DiscoverX (KINOMEscan)
T24 sequence (P54756 25-1037): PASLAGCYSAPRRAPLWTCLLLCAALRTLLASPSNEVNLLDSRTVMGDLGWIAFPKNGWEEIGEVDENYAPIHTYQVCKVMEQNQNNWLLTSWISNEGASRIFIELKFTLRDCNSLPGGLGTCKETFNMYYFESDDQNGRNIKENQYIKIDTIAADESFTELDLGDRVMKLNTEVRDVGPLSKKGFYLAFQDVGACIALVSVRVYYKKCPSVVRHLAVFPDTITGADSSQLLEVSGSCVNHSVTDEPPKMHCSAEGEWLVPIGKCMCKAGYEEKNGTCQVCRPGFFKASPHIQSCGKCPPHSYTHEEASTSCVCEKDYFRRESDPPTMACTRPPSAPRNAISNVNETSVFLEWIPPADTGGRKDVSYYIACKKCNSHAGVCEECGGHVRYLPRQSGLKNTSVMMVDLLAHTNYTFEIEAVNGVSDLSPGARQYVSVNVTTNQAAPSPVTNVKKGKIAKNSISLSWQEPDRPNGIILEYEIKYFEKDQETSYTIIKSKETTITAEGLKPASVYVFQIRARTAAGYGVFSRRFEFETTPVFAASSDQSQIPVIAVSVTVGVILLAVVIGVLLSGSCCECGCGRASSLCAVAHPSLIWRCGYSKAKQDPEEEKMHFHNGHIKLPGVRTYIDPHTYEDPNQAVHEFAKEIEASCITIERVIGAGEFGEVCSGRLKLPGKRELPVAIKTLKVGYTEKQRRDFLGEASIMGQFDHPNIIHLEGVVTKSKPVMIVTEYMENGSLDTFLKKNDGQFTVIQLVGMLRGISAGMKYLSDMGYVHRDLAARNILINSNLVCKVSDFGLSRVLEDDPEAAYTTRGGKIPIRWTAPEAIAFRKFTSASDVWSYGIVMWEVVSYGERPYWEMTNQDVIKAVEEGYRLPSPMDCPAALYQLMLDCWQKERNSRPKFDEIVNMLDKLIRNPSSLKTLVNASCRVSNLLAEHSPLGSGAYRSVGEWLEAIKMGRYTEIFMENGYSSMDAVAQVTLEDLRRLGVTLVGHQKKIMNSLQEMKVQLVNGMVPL

[25] = biological target: T25, MAP3K1 (Homo sapiens, UniProt Q13233)
T25 construct: purchased DiscoverX (KINOMEscan)

[26] = biological target: T26, CIT (Homo sapiens, UniProt O14578)
T26 construct: purchased DiscoverX (KINOMEscan)

[27] = biological target: T27, EIF2AK1 (Homo sapiens, UniProt Q9BQI3)
T27 construct: purchased DiscoverX (KINOMEscan)

[28] = biological target: T28, BRAF(V600E) (Homo sapiens, UniProt P15056, V600E)
T28 construct: purchased DiscoverX (KINOMEscan)

[29] = biological target: T29, ABL1(H396P)-phosphorylated (Homo sapiens, UniProt P00519, H396P)
T29 construct: purchased DiscoverX (KINOMEscan)

[30] = biological target: T30, SRPK2 (Homo sapiens, UniProt P78362)
T30 construct: purchased DiscoverX (KINOMEscan)

[31] = biological target: T31, LIMK1 (Homo sapiens, UniProt P53667)
T31 construct: purchased DiscoverX (KINOMEscan)
T31 sequence (P53667 whole entry): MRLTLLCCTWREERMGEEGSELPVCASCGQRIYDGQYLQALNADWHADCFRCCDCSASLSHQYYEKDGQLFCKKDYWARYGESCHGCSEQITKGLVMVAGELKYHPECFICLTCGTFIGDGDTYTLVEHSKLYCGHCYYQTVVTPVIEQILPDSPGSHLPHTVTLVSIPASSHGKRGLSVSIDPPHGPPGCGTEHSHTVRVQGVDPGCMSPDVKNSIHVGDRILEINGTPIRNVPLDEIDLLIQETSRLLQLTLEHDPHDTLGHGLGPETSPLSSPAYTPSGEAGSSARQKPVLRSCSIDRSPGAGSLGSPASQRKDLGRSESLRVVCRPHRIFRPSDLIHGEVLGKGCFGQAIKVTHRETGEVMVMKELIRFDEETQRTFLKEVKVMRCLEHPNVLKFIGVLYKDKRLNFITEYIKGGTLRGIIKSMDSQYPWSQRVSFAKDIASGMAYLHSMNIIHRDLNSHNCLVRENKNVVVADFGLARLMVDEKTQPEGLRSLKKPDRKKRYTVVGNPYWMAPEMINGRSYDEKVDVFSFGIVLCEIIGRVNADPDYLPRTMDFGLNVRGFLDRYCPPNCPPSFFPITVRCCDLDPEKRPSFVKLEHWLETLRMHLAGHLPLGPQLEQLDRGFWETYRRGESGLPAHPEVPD

[32] = biological target: T32, KIT(V559D,V654A) (Homo sapiens, UniProt P10721, V559D/V654A)
T32 construct: purchased DiscoverX (KINOMEscan)

[33] = biological target: T33, ABL1(Y253F)-phosphorylated (Homo sapiens, UniProt P00519, Y253F)
T33 construct: purchased DiscoverX (KINOMEscan)

[34] = biological target: T34, TAOK3 (Homo sapiens, UniProt Q9H2K8)
T34 construct: purchased DiscoverX (KINOMEscan)

[35] = biological target: T35, EGFR (Homo sapiens, UniProt P00533)
T35 construct: purchased DiscoverX (KINOMEscan)

[36] = biological target: T36, CSNK1G3 (Homo sapiens, UniProt Q9Y6M4)
T36 construct: purchased DiscoverX (KINOMEscan)

[37] = biological target: T37, ABL1-nonphosphorylated (Homo sapiens, UniProt P00519)
T37 construct: purchased DiscoverX (KINOMEscan)

SMILES: COc1cc(/C=C2\N=C(N)NC2=O)ccc1O [Polyandrocarpamine A]
- Score [1]: 91
- Score [2]: 100
- Score [3]: 100
- Score [4]: 100
- Score [5]: 100
- Score [6]: 94
- Score [7]: 100
- Score [8]: 89
- Score [9]: 100
- Score [10]: 89
- Score [11]: 100
- Score [12]: 95
- Score [13]: 100
- Score [14]: 100
- Score [15]: 100
- Score [16]: 100
- Score [17]: 95
- Score [18]: 100
- Score [19]: 100
- Score [20]: 100
- Score [21]: 79
- Score [22]: 100
- Score [23]: 100
- Score [24]: 100
- Score [25]: 100
- Score [26]: 100
- Score [27]: 100
- Score [28]: 96
- Score [29]: 100
- Score [30]: 100
- Score [31]: 100
- Score [32]: 100
- Score [33]: 100
- Score [34]: 87
- Score [35]: 99
- Score [36]: 84
- Score [37]: 90
